Laboratory results reported in ChEMBL document CHEMBL4665836, “Overcoming β-Lactam resistance in Pseudomonas aeruginosa using non-canonical tobramycin-based antibiotic adjuvants” (2020).

Tests used:
Format in all cases: functional
[1] = system: Pseudomonas aeruginosa; experiment: Antibacterial activity against Pseudomonas aeruginosa PAO200 harboring mexAB-oprM efflux deficient mutant
[2] = system: Pseudomonas aeruginosa; experiment: Potentiation of ceftazidime-induced antibacterial activity against carbapenem-resistant Pseudomonas aeruginosa 109084 clinical isolate assessed as fold reduction in ceftazidime MIC at 8 uM in presence of beta-lactamase inhibitor, avi-bactam
[3] = system: Pseudomonas aeruginosa; experiment: Potentiation of ceftazidime-induced antibacterial activity against carbapenem-resistant Pseudomonas aeruginosa 107092 clinical isolate assessed as fold reduction in ceftazidime MIC at 8 uM in presence of beta-lactamase inhibitor, avi-bactam
[4] = system: Pseudomonas aeruginosa; experiment: Potentiation of imipenem-induced antibacterial activity against carbapenem-resistant Pseudomonas aeruginosa 108590 clinical isolate assessed as imipenem MIC at 8 uM by checkerboard assay (reference value: 16 ug/ml)
[5] = system: Pseudomonas aeruginosa; experiment: Potentiation of ceftazidime-induced antibacterial activity against carbapenem-resistant Pseudomonas aeruginosa 101885 clinical isolate assessed as ceftazidime MIC at 8 uM by checkerboard assay (reference value: 8 ug/ml)
[6] = system: Pseudomonas aeruginosa; experiment: Potentiation of ceftazidime-induced antibacterial activity against carbapenem-resistant Pseudomonas aeruginosa 264-104354 clinical isolate assessed as ceftazidime MIC at 8 uM by checkerboard assay (reference value: 128 ug/ml)
[7] = system: Pseudomonas aeruginosa; experiment: Potentiation of aztreonam-induced antibacterial activity against carbapenem-resistant Pseudomonas aeruginosa 264-104354 clinical isolate assessed as aztreonam MIC at 8 uM by checkerboard assay (reference value: 32 ug/ml)
[8] = system: Pseudomonas aeruginosa; experiment: Potentiation of aztreonam-induced antibacterial activity against carbapenem-resistant Pseudomonas aeruginosa 88949 clinical isolate assessed as aztreonam MIC at 8 uM by checkerboard assay (reference value: 32 ug/ml)
[9] = system: Pseudomonas aeruginosa; experiment: Potentiation of ceftazidime-induced antibacterial activity against carbapenem and colistin-resistant Pseudomonas aeruginosa 91433 clinical isolate assessed as ceftazidime MIC at 8 uM by checkerboard assay (reference value: 4 ug/ml)
[10] = system: Pseudomonas aeruginosa; experiment: Antibacterial activity against Pseudomonas aeruginosa PAO750 harboring mexAB-oprM/mexCD-oprJ/mexEF-oprN/mexJK/mexXY/opmH efflux deficient mutant
[11] = system: Pseudomonas aeruginosa; experiment: Potentiation of imipenem-induced antibacterial activity against carbapenem and colistin-resistant Pseudomonas aeruginosa 114228 clinical isolate assessed as imipenem MIC at 8 uM by checkerboard assay (reference value: 8 ug/ml)
[12] = system: Pseudomonas aeruginosa; experiment: Potentiation of aztreonam-induced antibacterial activity against carbapenem-resistant Pseudomonas aeruginosa 86052 clinical isolate assessed as fold reduction in aztreonam MIC at 8 uM in presence of beta-lactamase inhibitor, avi-bactam
[13] = system: Pseudomonas aeruginosa; experiment: Potentiation of ceftazidime-induced antibacterial activity against carbapenem-resistant Pseudomonas aeruginosa 100036 clinical isolate assessed as ceftazidime MIC at 8 uM by checkerboard assay (reference value: 8 ug/ml)
[14] = system: Pseudomonas aeruginosa; experiment: Potentiation of imipenem-induced antibacterial activity against carbapenem-resistant Pseudomonas aeruginosa 109084 clinical isolate assessed as imipenem MIC at 8 uM by checkerboard assay (reference value: 16 ug/ml)
[15] = system: Pseudomonas aeruginosa; experiment: Potentiation of imipenem-induced antibacterial activity against carbapenem-resistant Pseudomonas aeruginosa 88949 clinical isolate assessed as fold reduction in imipenem MIC at 8 uM in presence of beta-lactamase inhibitor, rele-bactam
[16] = system: Pseudomonas aeruginosa; experiment: Potentiation of aztreonam-induced antibacterial activity against carbapenem-resistant Pseudomonas aeruginosa 107092 clinical isolate assessed as fold reduction in aztreonam MIC at 8 uM in presence of beta-lactamase inhibitor, avi-bactam
[17] = system: Pseudomonas aeruginosa; experiment: Potentiation of ceftazidime-induced antibacterial activity against carbapenem-resistant Pseudomonas aeruginosa 260-97103 clinical isolate assessed as ceftazidime MIC at 8 uM by checkerboard assay (reference value: 32 ug/ml)
[18] = system: Pseudomonas aeruginosa; experiment: Potentiation of imipenem-induced antibacterial activity against carbapenem and colistin-resistant Pseudomonas aeruginosa 91433 clinical isolate assessed as imipenem MIC at 8 uM by checkerboard assay (reference value: 8 ug/ml)
[19] = system: Pseudomonas aeruginosa; experiment: Potentiation of aztreonam-induced antibacterial activity against carbapenem-resistant Pseudomonas aeruginosa 109084 clinical isolate assessed as fold reduction in aztreonam MIC at 8 uM in presence of beta-lactamase inhibitor, avi-bactam
[20] = system: Pseudomonas aeruginosa; experiment: Potentiation of aztreonam-induced antibacterial activity against carbapenem-resistant Pseudomonas aeruginosa 88949 clinical isolate assessed as fold reduction in aztreonam MIC at 8 uM in presence of beta-lactamase inhibitor, avi-bactam
[21] = system: Pseudomonas aeruginosa; experiment: Potentiation of piperacillin-induced antibacterial activity against wild type Pseudomonas aeruginosa PAO1 assessed as fold reduction in piperacillin MIC at 8 uM
[22] = system: Pseudomonas aeruginosa; experiment: Potentiation of ceftazidime-induced antibacterial activity against carbapenem-resistant Pseudomonas aeruginosa 86052 clinical isolate assessed as fold reduction in ceftazidime MIC at 8 uM in presence of beta-lactamase inhibitor, avi-bactam
[23] = system: Pseudomonas aeruginosa; experiment: Potentiation of aztreonam-induced antibacterial activity against carbapenem-resistant Pseudomonas aeruginosa 109084 clinical isolate assessed as aztreonam MIC at 8 uM by checkerboard assay (reference value: 64 ug/ml)
[24] = system: Pseudomonas aeruginosa; experiment: Potentiation of imipenem-induced antibacterial activity against carbapenem-resistant Pseudomonas aeruginosa 259-96918 clinical isolate expressing MBL assessed as imipenem MIC at 8 uM by checkerboard assay (reference value: 64 ug/ml)
[25] = system: Pseudomonas aeruginosa; experiment: Potentiation of aztreonam-induced antibacterial activity against carbapenem-resistant Pseudomonas aeruginosa 101885 clinical isolate assessed as aztreonam MIC at 8 uM by checkerboard assay (reference value: 16 ug/ml)
[26] = system: Pseudomonas aeruginosa; experiment: Potentiation of imipenem-induced antibacterial activity against carbapenem-resistant Pseudomonas aeruginosa 108590 clinical isolate assessed as fold reduction in imipenem MIC at 8 uM in presence of beta-lactamase inhibitor, rele-bactam
[27] = system: Pseudomonas aeruginosa; experiment: Potentiation of aztreonam-induced antibacterial activity against carbapenem-resistant Pseudomonas aeruginosa PAO750 harboring mexAB-oprM/mexCD-oprJ/mexEF-oprN/mexJK/mexXY/opmH efflux deficient mutant assessed as aztreonam MIC at 8 uM by checkerboard assay (reference value: 0.5 ug/ml)
[28] = system: Pseudomonas aeruginosa; experiment: Potentiation of aztreonam-induced antibacterial activity against carbapenem-resistant Pseudomonas aeruginosa 108590 clinical isolate assessed as aztreonam MIC at 8 uM by checkerboard assay (reference value: 32 ug/ml)
[29] = system: Pseudomonas aeruginosa; experiment: Potentiation of imipenem-induced antibacterial activity against carbapenem-resistant Pseudomonas aeruginosa 86052 clinical isolate assessed as fold reduction in imipenem MIC at 8 uM in presence of beta-lactamase inhibitor, rele-bactam
[30] = system: Pseudomonas aeruginosa; experiment: Potentiation of imipenem-induced antibacterial activity against carbapenem-resistant Pseudomonas aeruginosa 107092 clinical isolate assessed as fold reduction in imipenem MIC at 8 uM in presence of beta-lactamase inhibitor, rele-bactam
[31] = system: Pseudomonas aeruginosa; experiment: Potentiation of aztreonam-induced antibacterial activity against carbapenem and colistin-resistant Pseudomonas aeruginosa 91433 clinical isolate assessed as aztreonam MIC at 8 uM by checkerboard assay (reference value: 16 ug/ml)
[32] = system: Pseudomonas aeruginosa; experiment: Potentiation of piperacillin-induced antibacterial activity against wild type Pseudomonas aeruginosa PAO1 assessed as piperacillin MIC at 8 uM by checkerboard assay (reference value: 8 ug/ml)
[33] = system: Pseudomonas aeruginosa; experiment: Potentiation of ceftazidime-induced antibacterial activity against carbapenem-resistant Pseudomonas aeruginosa 109084 clinical isolate assessed as ceftazidime MIC at 8 uM by checkerboard assay (reference value: 64 ug/ml)

| SMILES | MIC [1] [µg/mL] | fold change (FC) [2] | fold change (FC) [3] | MIC [4] [µg/mL] | MIC [5] [µg/mL] | MIC [6] [µg/mL] | MIC [7] [µg/mL] | MIC [8] [µg/mL] | MIC [9] [µg/mL] | MIC [10] [µg/mL] | MIC [11] [µg/mL] | fold change (FC) [12] | MIC [13] [µg/mL] | MIC [14] [µg/mL] | fold change (FC) [15] | fold change (FC) [16] | MIC [17] [µg/mL] | MIC [18] [µg/mL] | fold change (FC) [19] | fold change (FC) [20] | further results |
| --- | --- | --- | --- | --- | --- | --- | --- | --- | --- | --- | --- | --- | --- | --- | --- | --- | --- | --- | --- | --- | --- |
| Cl.Cl.Cl.Cl.Cl.NC[C@H]1O[C@H](O[C@H]2[C@H](OCCCCCCCCCCCCN3CCN(c4cc5c(cc4F)c(=O)c(C(=O)O)cn5C4CC4)CC3)[C@@H](O)[C@H](N)C[C@@H]2N)[C@H](N)C[C@@H]1O | 4 | 16 | 16 | 0.5 | 4 | 64 | 16 | 8 | 0.5 | 2 | 1 | 16 | 4 | 8 | 16 | 16 | 0.25 | 8 | 16 | 16 | fold change (FC) [21]: 2; fold change (FC) [22]: 16; MIC [23]: 32 µg/mL; MIC [24]: 16 µg/mL; MIC [25]: 4 µg/mL; fold change (FC) [26]: 16; MIC [27]: 0.13 µg/mL; MIC [28]: 0.13 µg/mL; fold change (FC) [29]: 16; fold change (FC) [30]: 16; MIC [31]: 8 µg/mL; MIC [32]: 2 µg/mL; MIC [33]: 32 µg/mL |
| NC[C@H]1O[C@H](O[C@H]2[C@H](OCCCCCCCCN3CCCNCCNCCCNCC3)[C@@H](O)[C@H](N)C[C@@H]2N)[C@H](N)C[C@@H]1O.O=C(O)C(F)(F)F.O=C(O)C(F)(F)F.O=C(O)C(F)(F)F.O=C(O)C(F)(F)F.O=C(O)C(F)(F)F.O=C(O)C(F)(F)F.O=C(O)C(F)(F)F.O=C(O)C(F)(F)F | > 128 | 16 | 16 | 16 | 2 | 32 | 16 | 32 | 2 | > 128 | 8 | 16 | 4 | 16 | 16 | 16 | 16 | 4 | 16 | 16 | fold change (FC) [21]: 2; fold change (FC) [22]: 16; MIC [23]: 32 µg/mL; MIC [24]: 32 µg/mL; MIC [25]: 4 µg/mL; fold change (FC) [26]: 16; MIC [27]: 0.13 µg/mL; MIC [28]: 8 µg/mL; fold change (FC) [29]: 16; fold change (FC) [30]: 16; MIC [31]: 8 µg/mL; MIC [32]: 2 µg/mL; MIC [33]: 32 µg/mL |
